Like-named read-outs stand apart in the source and are kept apart here.

The test system of assay [1] is HIV-1 (strain IIIB). As to the kind of experiment: Antiviral activity assay in MT4 cells (propidium iodide based). The format is cell-based. The note with it: wild type HIV-1 virus, MT4 cells, read-out: Wildtype virus - IC50. As for the experimental part: Antiviral Activity Assay in MT4 Cells
(§1) Aliquots of the test compounds were serially diluted in medium (RPMI 1640, 10% fetal calf serum (FCS), and gentamycin) in 96-well plates (Costar 3598) using a Cetus Pro/Pette. Exponentially growing MT4 cells were harvested and centrifuged at 1000 rpm for 10 min in a Jouan centrifuge (model CR 4 12). Cell pellets were resuspended in fresh medium (RPMI 1640, 20% FCS, 20% IL-2, and gentamycin) to a density of 5×10^5 cells/ml. Cell aliquots were infected by the addition of HIV-1 (strain IIIB) diluted to give a viral multiplicity of infection of 100×TCID50. A similar cell aliquot was diluted with medium to provide a mock-infected control. Cell infection was allowed to proceed for 1 hr at 37° in a tissue culture incubator with humidified 5% CO2 atmosphere. After the 1 hr incubation the virus/cell suspensions were diluted 6-fold with fresh medium, and 125 μl of the cell suspension was added to each well of the plate containing pre-diluted compound. Plates were then placed in a tissue culture incubator with humidified 5% CO2 for 5 days. At the end of the incubation period, 27 μl of 5% Nonidet-40 was added to each well of the incubation plate. After thorough mixing with a Costar multitip pipetter, 60 μl of the mixture was transferred to filter-bottomed 96-well plates. The plates were analyzed in an automated assay instrument (Screen Machine, Idexx Laboratories). The assay makes use of a propidium iodide dye to estimate the DNA content of each well.
The anti-viral potency in MT-4 cells of the compounds set forth in Tables 1 and 2 was determined using the above technique.

In assay [2] the test system is D545701-14 multi protease inhibitor resistant virus. Kind of assay: Anti-viral activity against resistant virus D545701-14 in MT4 cells. The format is cell-based, HIV-1. As for the experimental part: as §1, with “Exponentially” for “Aliquots of the test compounds were serially diluted in medium (RPMI 1640, 10% fetal calf serum (FCS), and gentamycin) in 96-well plates (Costar 3598) using a Cetus Pro/Pette. Exponentially”, “Cell pellets were resuspended in fresh medium (RPMI 1640, 20% FCS, 20% IL-2, and gentamycin) to a density of 5×10^5 cells/ml.” left out, “A similar cell aliquot was diluted with medium to provide a mock-infected control.” left out
Anti-Viral Activity Against Resistant Viruses
EP13 and DS45701, two multi protease inhibitor resistant viruses were used to assess potency against mutant viruses. These viruses contain the following mutations relative to the consensus sequence of wild type virus: […]

[3] abbreviates: D545701-14 multi protease inhibitor resistant virus, MT4 cells, read-out: D545701-14 mutant - IC50.
[4] abbreviates: Human immunodeficiency virus 1, IIIB.

Regarding `CC(C)CN(C[C@@H](O)[C@H](Cc1ccc(OCc2ccoc2)cc1)NC(=O)O[C@H]1CO[C@H]2OCC[C@H]21)S(=O)(=O)c1ccc2c(c1)OCO2` [Compound 210], the IC50 lay in the range of 1 to 10 nM in assay [1] and 10 to 100 nM in assay [2] (setting [3]).

On to `CC(C)CN(C[C@@H](O)[C@H](Cc1ccc(OCCc2ccccn2)cc1)NC(=O)O[C@H]1CO[C@H]2OCC[C@H]21)S(=O)(=O)c1ccc2c(c1)OCO2` [Compound 212], for which the IC50 is 1 to 10 nM in assay [1] and 10 to 100 nM in assay [2] (setting [3]).

Regarding `CC(C)CN(C[C@@H](O)[C@H](Cc1ccc(OCCCNC(=O)c2ccccc2)cc1)NC(=O)O[C@H]1CO[C@H]2OCC[C@H]21)S(=O)(=O)c1ccc2c(c1)OCO2` [Compound 233], the values for the IC50 in assay [1] and in assay [2] (setting [3]) were 1 to 10 nM and 10 to 100 nM, respectively.

Consider `CCOC(CCOC(=O)N[C@@H](Cc1ccc(OCc2ccccc2)cc1)[C@H](O)CN(CC(C)C)S(=O)(=O)c1ccc2c(c1)OCO2)OCC` [Compound 328, 3,3-Diethoxypropyl (1S,2R)-3-[(1,3-benzodioxol-5-ylsulfonyl)(isobutyl)amino]-1-[4-(benzyloxy)benzyl]-2-hydroxypropylcarbamate], for which, in assay [1] (setting [4]), the IC50 was in the range of 10 to 100 nM.

For the compound `CCC(CC)ON(C[C@@H](O)[C@H](Cc1ccc(OCc2ccccc2)cc1)NC(=O)OC1COCOC1)S(=O)(=O)c1ccc2c(c1)OCO2` [Compound 330, 1,3-Dioxan-5-yl (1S,2R)-3-[(1,3-benzodioxol-5-ylsulfonyl) (1-ethylpropoxy)amino]-1-[4-(benzyloxy)benzyl]-2-hydroxypropylcarbamate], in assay [1] (setting [4]), the IC50 fell in the range of 10 to 100 nM.

Consider `CC(C)CN(C[C@@H](O)[C@H](Cc1ccc(OCCCC(=O)O)cc1)NC(=O)O[C@H]1CO[C@H]2OCC[C@H]21)S(=O)(=O)c1ccc2c(c1)OCO2` [Compound 339, 4-(4-{(2S,3R)-2-({[(3R,3aS,6aR)-hexahydrofuro[2,3-b]furan-3-yloxy]carbonyl}amino)-4-[(1,3-benzodioxol-5-ylsulfonyl)(isobutyl)amino]-3-hydroxybutyl}phenoxy) butanoic acid], for which, in assay [1] (setting [4]), the IC50 was 10 to 100 nM.

Turning to `CC(C)CN(C[C@@H](O)[C@H](Cc1ccc(OCc2ccccc2)cc1)NC(=O)O[C@H]1CO[C@H]2OCC[C@H]21)S(=O)(=O)c1ccc2c(c1)OC(F)(F)O2` [Compound 340, (3R,3aS,6aR)-hexahydrofuro[2,3-b]furan-3-yl (1S,2R)-1-[4-(benzyloxy)benzyl]-3-[[(2,2-difluoro-1,3-benzodioxol-5-yl)sulfonyl](isobutyl)amino]-2-hydroxypropylcarbamate], in assay [1] (setting [4]), the IC50 is 10 to 100 nM.

With `Cc1cc(S(=O)(=O)N(CC(C)C)C[C@@H](O)[C@H](Cc2ccc(OCc3cccc(C#N)c3)cc2)NC(=O)O[C@H]2CO[C@H]3OCC[C@H]32)ccc1O` [Compound 346], the IC50 in assay [1] (setting [4]) lay in the range of 10 to 100 nM.

Regarding `Cc1cccc(C)c1OCC(=O)N[C@@H](Cc1ccc(OS(=O)(=O)c2ccc3c(c2)OCO3)cc1)[C@H](O)CN(CC(C)C)S(=O)(=O)c1ccc2c(c1)OCO2` [Compound 350, 4-((2S,3R)-4-[(1,3-benzodioxol-5-ylsulfonyl)(isobutyl)amino]-2-{[(2,6-dimethylphenoxy)acetyl]amino}-3-hydroxybutyl)phenyl 1,3-benzodioxole-5-sulfonate], the IC50 in assay [1] (setting [4]) lay within 10 to 100 nM.

As for `CC(C)CN(C[C@@H](O)[C@H](Cc1ccc(OCCN)cc1)NC(=O)O[C@H]1CO[C@H]2OCC[C@H]21)S(=O)(=O)c1ccc2c(c1)OCO2` [Compound 354, (3R,3aS,6aR)hexahydrofuro[2,3-b]furan-3-yl (1S,2R)-3-[(1,3-benzodioxol-5-ylsulfonyl)(isobutyl)amino]-2-hydroxy-1-[4-(2-aminoethoxy)benzyl]propylcarbamate], the IC50 in assay [1] (setting [4]) lay within 10 to 100 nM.

As to `CNC(=O)OCCCC(C)(C)CN(C[C@@H](O)[C@H](Cc1ccc(OCc2ccccc2)cc1)NC(=O)OC1CCOC1)S(=O)(=O)c1ccc2c(c1)OCO2` (stereo partly drawn) [Compound 362], the IC50 in assay [1] (setting [4]) is 10 to 100 nM.

With `CNC(=O)OCCCC(C)(C)CN(C[C@@H](O)[C@H](Cc1ccc(OCc2ccccc2)cc1)NC(=O)OC1COCOC1)S(=O)(=O)c1ccc2c(c1)OCO2` [Compound 363, 1,3-Dioxan-5-yl N-((1S,2R)-1-[(4-benzyloxy)benzyl-3-[2,2-dimethyl-5-(N′-methylcarbamoyloxy)-pentyl][(3,4-methylenedioxyphenyl)sulfonyl]amino-2-hydroxypropyl) carbamate], in assay [1] (setting [4]), the IC50 is 10 to 100 nM.

As for `CSc1ccc(COc2ccc(C[C@H](NC(=O)O[C@H]3CO[C@H]4OCC[C@H]43)[C@H](O)CN(CC(C)C)S(=O)(=O)c3ccc4c(c3)OCO4)cc2)cc1` [Compound 369], the IC50 in assay [1] (setting [4]) lay in the range of 1 to 10 nM.

As for `CC(C)CN(C[C@@H](O)[C@H](Cc1ccc(OCc2ccc(C(F)(F)F)cc2)cc1)NC(=O)O[C@H]1CO[C@H]2OCC[C@H]21)S(=O)(=O)c1ccc2c(c1)OCO2` [Compound 372], the IC50 fell in the range of 1 to 10 nM in assay [1] and 10 to 100 nM in assay [2] (setting [3]).

With `CC(C)CN(C[C@@H](O)[C@H](Cc1ccc(OCc2cccc(C(F)(F)F)c2)cc1)NC(=O)O[C@H]1CO[C@H]2OCC[C@H]21)S(=O)(=O)c1ccc2c(c1)OCO2` [Compound 373], the IC50 was in the range of 1 to 10 nM in assay [1] and 10 to 100 nM in assay [2] (setting [3]).

In the case of `CC(C)CN(C[C@@H](O)[C@H](Cc1ccc(OCc2ccc(-c3csnn3)cc2)cc1)NC(=O)O[C@H]1CO[C@H]2OCC[C@H]21)S(=O)(=O)c1ccc2c(c1)OCO2` [Compound 374], the IC50 in assay [1] lay within 1 to 10 nM.

In the case of `CC(C)CN(C[C@@H](O)[C@H](Cc1ccc(OCc2noc(-c3ccccc3)n2)cc1)NC(=O)O[C@H]1CO[C@H]2OCC[C@H]21)S(=O)(=O)c1ccc2c(c1)OCO2` [Compound 375], the figures for the IC50 in assay [1] and in assay [2] (setting [3]) were 1 to 10 nM and 10 to 100 nM, respectively.

`CC(C)CN(C[C@@H](O)[C@H](Cc1ccc(OCc2ccc([N+](=O)[O-])cc2)cc1)NC(=O)O[C@H]1CO[C@H]2OCC[C@H]21)S(=O)(=O)c1ccc2c(c1)OCO2` [Compound 383, (3R,3aS,6aR)-hexahydrofuro[2,3-b]furan-3-yl (1S,2R)-3-[(1,3-benzodioxol-5-ylsulfonyl)(isobutyl)amino]-2-hydroxy 1-{4-[(4-nitrobenzyl)oxy]benzyl}propylcarbamate]: the IC50 in assay [1] was 1 to 10 nM.

For the compound `COc1ccccc1-c1nc(COc2ccc(C[C@H](NC(=O)O[C@H]3CO[C@H]4OCC[C@H]43)[C@H](O)CN(CC(C)C)S(=O)(=O)c3ccc4c(c3)OCO4)cc2)no1` [Compound 390, (3R,3aS,6aR)-hexahydrofuro[2,3-b]furan-3-yl (1S,2R)-3-[(1,3-benzodioxol-5-ylsulfonyl)(isobutyl)amino]-2-hydroxy-1-(4-{[5-(2-methoxyphenyl)-1,2,4-oxadiazol-3-yl]methoxy}benzyl) propylcarbamate], the IC50 in assay [1] fell in the range of 1 to 10 nM; in assay [2] (setting [3]), 10 to 100 nM.

Turning to `CC(C)CN(C[C@@H](O)[C@H](Cc1ccc(OCc2nccn2Cc2ccccc2)cc1)NC(=O)O[C@H]1CO[C@H]2OCC[C@H]21)S(=O)(=O)c1ccc2c(c1)OCO2` [Compound 394], the IC50 in assay [1] was 1 to 10 nM.

Take `N#Cc1cccc(COc2ccc(C[C@H](NC(=O)O[C@H]3CO[C@H]4OCC[C@H]43)[C@H](O)CN(CC3CCCC3)S(=O)(=O)c3ccc4c(c3)OCO4)cc2)c1` [Compound 396, (3R,3aS,6aR)-hexahydrofuro[2,3-b]furan-3-yl (1S,2R)-3-[(1,3-benzodioxol-5-ylsulfonyl)(cyclopentylmethyl)amino-]-1-{4-[(3-cyanobenzyl)oxy]benzyl}-2-hydroxypropylcarbamate]: the IC50 in assay [1] was 1 to 10 nM.

Take `Cc1c(O)cccc1C(=O)N[C@@H](CSc1ccccc1)[C@H](O)CN1C[C@H]2CCCC[C@H]2C[C@H]1C(=O)NC(C)(C)C` [Nelfinavir, reference compound]: the IC50 in assay [2] (Human immunodeficiency virus 1, MT4, read-out: Reference data for protease inhibitors (D545701-14), D545701-14 mutant virus) is 690 nM.

Regarding `CC(C)(C)NC(=O)[C@@H]1C[C@@H]2CCCC[C@@H]2CN1C[C@@H](O)[C@H](Cc1ccccc1)NC(=O)[C@H](CC(N)=O)NC(=O)c1ccc2ccccc2n1` [Saguinavir, reference compound], the IC50 in assay [2] (D545701-14 mutant virus, read-out: Reference data for protease inhibitors (D545701-14)) was determined as 900 nM.

These data come from patent US8455497B2, “Inhibitors of aspartyl protease” (Vertex Pharmaceuticals Incorporated, priority 1999, dated 2013).
